# From ChEMBL document CHEMBL1145330, “NMR structure of a potent small molecule inhibitor bound to human keratinocyte fatty acid-binding protein” (J Med Chem, 2006)
# Key:
# [1] = biological target: Fatty acid-binding protein, adipocyte (Homo sapiens, UniProt P15090); test: Binding affinity to ap2
# [2] = biological target: Fatty acid-binding protein 5 (Homo sapiens, UniProt Q01469); test: Binding affinity to human kFABP
# Fatty acid-binding protein 5, sequence (Q01469 whole entry): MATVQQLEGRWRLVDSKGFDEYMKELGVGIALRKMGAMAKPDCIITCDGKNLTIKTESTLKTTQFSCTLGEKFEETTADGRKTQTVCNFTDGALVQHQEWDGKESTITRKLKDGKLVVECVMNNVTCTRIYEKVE
# Fatty acid-binding protein, adipocyte, sequence (P15090 whole entry): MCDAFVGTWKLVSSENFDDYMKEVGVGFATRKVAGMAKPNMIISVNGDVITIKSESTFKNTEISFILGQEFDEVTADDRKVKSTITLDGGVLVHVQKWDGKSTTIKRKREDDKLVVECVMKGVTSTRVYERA
SMILES,Ki [1],Ki [2]
O=C(O)Cc1cccc(OCc2ccccc2Cl)c1OCc1ccccc1Cl,16 nM,
OCC(O)c1cccc(OCc2ccccc2Cl)c1OCc1ccccc1Cl (stereo unspecified),> 2000 nM,> 2000 nM
O=C(O)C(=O)c1cccc(OCc2ccccc2Cl)c1OCc1ccccc1Cl,< 2 nM,< 2 nM
O=C(O)[C@@H](O)c1cccc(OCc2ccccc2Cl)c1OCc1ccccc1Cl,2.5 nM,
